The numbers were not newly measured in patent US20030167999A1, “Crystal” (priority 2000, published 2003), which cites them from elsewhere.

Among the targets are hAR LBD M787V (Homo sapiens, UniProt P10275, M788V); wild-type hAR (Homo sapiens, UniProt P10275); hAR M742V (Homo sapiens, UniProt P10275, M743V); hAR mutation F764S (Homo sapiens, UniProt P10275, F765S); hAR M7421 (Homo sapiens, UniProt P10275, M743I).
For the next data set, the target named is T1, wild-type hPR (Homo sapiens, UniProt P06401).
T1 sequence (P06401 1-933): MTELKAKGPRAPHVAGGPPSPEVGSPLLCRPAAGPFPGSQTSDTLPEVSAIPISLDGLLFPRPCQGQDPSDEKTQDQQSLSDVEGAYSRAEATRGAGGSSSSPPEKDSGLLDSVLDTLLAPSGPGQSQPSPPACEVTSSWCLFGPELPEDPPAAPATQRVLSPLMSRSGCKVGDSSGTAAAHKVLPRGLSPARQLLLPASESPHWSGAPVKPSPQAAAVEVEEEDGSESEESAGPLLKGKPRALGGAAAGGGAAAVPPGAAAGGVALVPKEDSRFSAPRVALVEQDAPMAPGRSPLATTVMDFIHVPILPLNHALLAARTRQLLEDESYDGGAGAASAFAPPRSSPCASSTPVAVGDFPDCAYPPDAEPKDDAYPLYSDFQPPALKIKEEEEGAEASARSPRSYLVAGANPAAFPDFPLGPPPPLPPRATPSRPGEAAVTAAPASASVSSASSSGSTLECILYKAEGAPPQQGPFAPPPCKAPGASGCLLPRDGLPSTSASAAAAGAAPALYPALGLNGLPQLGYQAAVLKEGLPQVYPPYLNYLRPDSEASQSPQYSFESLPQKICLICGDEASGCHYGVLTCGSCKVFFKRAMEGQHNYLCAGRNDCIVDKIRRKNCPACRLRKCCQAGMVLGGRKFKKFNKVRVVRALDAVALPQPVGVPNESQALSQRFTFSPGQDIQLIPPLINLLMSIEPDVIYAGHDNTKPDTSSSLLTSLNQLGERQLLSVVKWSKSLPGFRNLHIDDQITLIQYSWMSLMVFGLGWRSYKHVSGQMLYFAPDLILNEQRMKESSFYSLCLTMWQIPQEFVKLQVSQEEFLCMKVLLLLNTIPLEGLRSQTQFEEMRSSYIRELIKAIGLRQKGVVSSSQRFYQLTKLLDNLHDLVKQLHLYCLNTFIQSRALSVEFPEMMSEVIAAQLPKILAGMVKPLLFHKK
The following applies: with respect to progesterone (RBA=100).

Data set [1] deals with AR receptor of LNCaP (T877A) (Homo sapiens, UniProt P10275, T878A). The following applies: single point mutation T877A.
In the next data set the target is hAR mutant L707R (Homo sapiens, UniProt P10275, L708R). The note with it: Scatchard plot analysis.
Sequence of hAR mutant L707R (P10275 whole entry L708R): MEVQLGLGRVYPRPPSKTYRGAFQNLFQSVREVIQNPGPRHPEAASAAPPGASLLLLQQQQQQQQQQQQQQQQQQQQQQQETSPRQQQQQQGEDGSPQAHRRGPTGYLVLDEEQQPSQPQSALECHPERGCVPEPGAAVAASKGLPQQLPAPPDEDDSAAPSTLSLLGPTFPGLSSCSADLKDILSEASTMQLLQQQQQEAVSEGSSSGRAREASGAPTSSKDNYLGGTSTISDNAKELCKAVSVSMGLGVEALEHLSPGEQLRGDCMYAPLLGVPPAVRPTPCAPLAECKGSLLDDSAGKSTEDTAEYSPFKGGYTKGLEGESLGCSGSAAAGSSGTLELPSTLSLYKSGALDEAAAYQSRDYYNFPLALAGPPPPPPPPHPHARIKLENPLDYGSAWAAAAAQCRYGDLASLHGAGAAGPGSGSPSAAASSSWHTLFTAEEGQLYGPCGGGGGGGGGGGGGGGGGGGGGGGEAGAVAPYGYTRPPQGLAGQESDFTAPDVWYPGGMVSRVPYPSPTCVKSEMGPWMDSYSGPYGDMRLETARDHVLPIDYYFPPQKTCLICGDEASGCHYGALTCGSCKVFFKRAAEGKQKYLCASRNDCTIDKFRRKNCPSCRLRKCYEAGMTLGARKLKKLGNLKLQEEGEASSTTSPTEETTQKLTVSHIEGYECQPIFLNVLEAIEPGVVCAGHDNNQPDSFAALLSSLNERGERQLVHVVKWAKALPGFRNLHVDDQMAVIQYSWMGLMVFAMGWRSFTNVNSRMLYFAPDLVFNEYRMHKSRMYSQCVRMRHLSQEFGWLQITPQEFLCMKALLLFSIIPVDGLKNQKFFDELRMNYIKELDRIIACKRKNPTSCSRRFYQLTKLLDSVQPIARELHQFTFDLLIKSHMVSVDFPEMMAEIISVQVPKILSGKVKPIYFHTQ

Sequence of wild-type hAR (P10275 whole entry): as the sequence (P10275 whole entry L708R) above, with R708L counted along it
Sequence of hAR M742V (P10275 whole entry M743V): as the sequence (P10275 whole entry L708R) above, with R708L, M743V counted along it
Sequence of hAR LBD M787V (P10275 whole entry M788V, the tested form may be a part): as the sequence (P10275 whole entry L708R) above, with R708L, M788V counted along it
Sequence of hAR M7421 (P10275 whole entry M743I): as the sequence (P10275 whole entry L708R) above, with R708L, M743I counted along it
Sequence of hAR mutation F764S (P10275 whole entry F765S): as the sequence (P10275 whole entry L708R) above, with R708L, F765S counted along it
Sequence of AR receptor of LNCaP (T877A) (P10275 whole entry T878A): as the sequence (P10275 whole entry L708R) above, with R708L, T878A counted along it

In the case of `C[C@]1(O)CC[C@H]2[C@@H]3CCC4=CC(=O)CCC4=C3C=C[C@@]21C` [R1881, metribolone], the “relative binding affinity (RBA)” value at wild-type hPR is on record as 190; at wild-type hAR, 290. Besides, in data set [1], the “R1881 binding versus wild type” value was “identical”. In addition, on hAR mutant L707R, the binding affinity result was “undetectable”. Further, the binding entry on hAR LBD M787V is “undetectable or strongly reduced”. Also, the “effect of mutation on binding affinity” value at hAR M742V and on hAR M7421 was “dramatically reduce” each time. At hAR mutation F764S, the ligand dissociation result is “rapid ligand dissociation”.
